The values that follow come from patent publication US5674988A, “4-N-substituted sialic acids and their sialosides” (E. I. Du Pont de Nemours and Company, priority 1996, dated 1997).

Structures can show the parent of a compound that is named as a salt.

The target in this assay is influenza A neuraminidase. Nature of the assay: Radiolabeled-substrate neuraminidase inhibition assay (hydrolysis of 14C-labeled αDNeuAc(2-6)βDGal(1-4)DGlcNAc, A). The format is biochemical, influenza A virus. The settings on record: substrate A at 1.0-8.0 mM; inhibitor 0.07, 0.14, 0.28 mM; 100 mM NaOAc-5 mM Na2HPO4 pH 5.5; 37° C.; from Lineweaver-Burk plots; read-out: inhibition constant Ki. On the procedure:
In order to determine the effectiveness of the instant thiosialosides as neuraminidase inhibitors, incubations were performed involving the neuraminidase, the thiosialoside inhibitor and a ^14 C-labeled substrate, ^14 C-labeled αDNeuAc (2-6) βDGal (1-4) DGlcNAc (A).
Inhibition constants of the inhibitors were determined by incubating (37° C.) a solution of A at four different concentrations with the neuraminidase, in the presence or absence of the inhibitors. After the reaction, the reaction mixture was diluted with deionized water and passed through a column of Dowex resin. The column was further eluted with deionized water. Under these conditions, only the free LacNAc elutes. The eluant was diluted with Scintillation fluid (10 mL, Formula 989, NEN, MA) and the radioactivity was measured, and the amount of free LacNAc liberated was determined.
The activity of neuraminidase was measured with a radiolabeled substrate. […]
The neuraminidase concentration was 53 ug of influenza A virus in 60 uL of total reaction volume. […] The eluant was diluted with Scintillation fluid (10 mL), Formula 989, NEN, MA) and the radioactivity was measured for 2 or 5 min with a Liquid Scintillation counter. From the Lineweaver-Burk plots for the hydrolysis of A the inhibition constant Ki was calculated according to methods known in the art.

For the compound `CC(=O)NC1C(N)CC(OCC2OC(O)C(O)C(O)C2O)(C(=O)O)OC1C(O)C(O)CO` [Compound 12, Sodium Salt of 5-acetamido-4-amino-3,4,5-trideoxy-D-glycero-D-galacto-nonulopyranosylonicacid (2-6)-α-D-galacto-pyranose], the Ki came to 100 µM.

As to `CC(=O)N[C@H]1[C@H]([C@H](O)[C@H](O)CO)O[C@@](S[C@H](C)[C@H]2OC(O)[C@H](O)[C@@H](O)[C@H]2O)(C(=O)O)C[C@@H]1N` (stereo partly drawn) [Compound 14, Sodium Salt of 5-acetamido-4-amino-2-thio-3,4,5-trideoxy-D-glycero-D-galacto-nonulopyranosylonic acid(2-S-6)-7-deoxy-α,β-D-glycero-D-galacto-heptopyranose], the Ki turned out to be 51 µM.

As usually defined, the Ki is the dissociation constant of the complex between target and ligand, obtained from inhibition or displacement.
